The text below walks through data of patent US20090142816A1, “GLIOCLADIUM ISOLATE C-13 AND METHODS OF ITS USE FOR PRODUCING VOLATILE COMPOUNDS AND HYDROCARBONS” (priority 2007, published 2009).

Common to all, as to assay: PDA plate bioassay of artificial VOC mixture / [8]annulene, two day exposure
Assay type in all cases: cell-based

In one assay the test system is Aspergillus ochraceus. Here is the method: (§1) An artificial mixture of compounds, as well as [8]annulene, that were positively identified in the atmosphere of the Gliocladium sp., were subjected to PDA plate bioassay tests for a two day exposure period. They were available from Sigma-Aldrich (St. Louis, Mo.) or were prepared via organic synthetic techniques (Strobel et al., Microbiology 147: 2943-2950, 2001). Varying amounts (non-equilibrium conditions) of the mixtures of the VOCs (0.8-30 μl) were placed in a small sterile plastic microcup (4×6 mm) that was firmly fixed in the middle of the test plate, and then test organisms were inoculated around the periphery of the agar surface. The amount of each VOC used was calculated from relative areas (RA's) in Table 2. […] Measurements of fungal growth were made and compared to growth on a control PDA plate having no test compounds. The IC50 and IC100 values were calculated from data plots of inhibition of fungal growth as a function of VOC concentrations (Strobel et al., Microbiology 147: 2943-2950, 2001). The IC values are presented as the amount of VOCs (volume per ml of air space in the Petri plate above the fungal culture). Studies were done in triplicate and the data averaged and standard deviations determined (Strobel et al., Microbiology 147: 2943-2950, 2001). Each test organism, after the two day exposure was tested for its viability by placing it on a fresh plate of PDA.
(§2) The test fungi were exposed to amounts of the VOC's varying from 0.8 μl to 30 μl (non-equilibrium conditions in a 50 ml air space volume above the fungal culture on the Petri plate) and exposed to them for two days after which growth rates were measured and the IC50's and IC100's calculated.
(§3) The artificial mixture was prepared based on the ratios of the compounds identified by GC/MS. The IC50's were calculated on the basis of the μl VOCs/ml of the free gas space in the Petri plate above the fungal culture. The IC100's were extrapolated from the curves obtained by plotting fungal inhibition vs. VOC concentration. The IC100's represent the approximate concentration required to give 100% inhibition of fungal growth. Viability was evaluated by transferring the fungal to a regular PDA plate after exposure to the VOC mixtures.
(§4) The IC50's were calculated on the basis of the μl [8]annulene/ml of the free gas space in the Petri plate above the fungal culture. The IC50's and IC100's were calculated in the same manner as described in Example 1. The IC100's represent the approximate concentration required to give 100% inhibition of fungal growth. Viability was tested by transferring the fungal to a regular PDA plate after exposure to [8]annulene.

A further assay has as its system Fusarium oxysporum. Here is the method:
as §1, §2, §3, §4

For the next assay, the system named is Geotrichum candidum. Here is the method: as §1, §2, §3, §4
Another assay has as its system Gliocladium sp. Here is the method: as §1, §2, §3, §4
A further assay concerns Pythium ultimum. On the procedure:
as §1, §2, §3, §4

The test system of a further assay is Rhizoctonia solani. On the procedure: as §1, §2, §3, §4
The subject of the next assay is Sclerotinia sclerotiorum. Here is the method: as §1, §2, §3, §4
For a further assay, the system named is Verticillium dahliae. On the procedure: as §1, §2, §3, §4
[1] abbreviates: after exposure at the IC100 level, placed on fresh agar plate.
Where [2] appears, read: two day exposure, approximate concentration for 100% inhibition, extrapolated from inhibition curves.
Setting [3] is: two day exposure, μl per ml of free gas space in the Petri plate.

Entries after “also recorded” stand apart in the source; their conditions may differ.

Take `C1=CC=CC=CC=C1` [[8]annulene, 1,3,5,7-cyclooctatetraene]: the Viability entry in the assay with Aspergillus ochraceus (setting [1]) is listed as “alive”; in the assay with Fusarium oxysporum (setting [1]), “alive”; in the assay on Geotrichum candidum (setting [1]), “alive”; in the assay with Gliocladium sp. (setting [1]), “alive”; in the assay with Pythium ultimum (setting [1]), “did not die; also recorded: alive”; in the assay on Rhizoctonia solani (setting [1]), “alive”. The Viability result in the assay with Sclerotinia sclerotiorum (setting [1]) is reported as “did not die; also recorded: alive”; in the assay with Verticillium dahliae (setting [1]), “alive”. The IC100 in the assay on Aspergillus ochraceus (setting [2]) is 0.50 μl/ml; in the assay on Fusarium oxysporum (setting [2]), 0.70 μl/ml; in the assay on Geotrichum candidum (setting [2]), 0.44 μl/ml; with Gliocladium sp. (setting [2]) it was 0.60 μl/ml; with Pythium ultimum (setting [2]), 0.30 μl/ml; in the assay with Rhizoctonia solani (setting [2]), 0.40 μl/ml. Also, the IC100 in the assay with Sclerotinia sclerotiorum (setting [2]) and in the assay with Verticillium dahliae (setting [2]) was 0.30 μl/ml throughout. The IC50 came out at 0.08 ± 0.01 μl/ml in the assay with Aspergillus ochraceus (setting [3]); 0.28 ± 0.03 μl/ml with Fusarium oxysporum (setting [3]); 0.10 ± 0.02 μl/ml in the assay with Geotrichum candidum (setting [3]); 0.30 ± 0.01 μl/ml with Gliocladium sp. (setting [3]); 0.10 ± 0.04 μl/ml with Pythium ultimum (setting [3]); 0.14 ± 0.08 μl/ml in the assay with Rhizoctonia solani (setting [3]). Besides, the IC50 in the assay on Sclerotinia sclerotiorum (setting [3]) is on record as 0.05 ± 0.01 μl/ml; with Verticillium dahliae (setting [3]) it was 0.18 ± 0.00 μl/ml.
